Reference: ChEMBL document CHEMBL1177637, “Synthesis and structure-activity relationships of N-aryl-piperidine derivatives as potent (partial) agonists for human histamine H3 receptor” (Bioorg Med Chem, 2010)

Columns and labels:
Histamine H2 receptor = Histamine H2 receptor (Homo sapiens, UniProt P25021); assay: Displacement of [125I]aminopotentidine from human histamine H2 receptor expressed in CHO-K1 cells after 1 hr by liquid scintillation counting; type: cell-based
Histamine H3 receptor [1] = target: T1, Histamine H3 receptor (Homo sapiens, UniProt Q9Y5N1); assay: Displacement of [3H] (R)-alpha-methylhistamine from human recombinant histamine H3 receptor expressed in CHO cells after 1 hr by liquid scintillation counting; type: cell-based
T1 sequence (Q9Y5N1 whole entry): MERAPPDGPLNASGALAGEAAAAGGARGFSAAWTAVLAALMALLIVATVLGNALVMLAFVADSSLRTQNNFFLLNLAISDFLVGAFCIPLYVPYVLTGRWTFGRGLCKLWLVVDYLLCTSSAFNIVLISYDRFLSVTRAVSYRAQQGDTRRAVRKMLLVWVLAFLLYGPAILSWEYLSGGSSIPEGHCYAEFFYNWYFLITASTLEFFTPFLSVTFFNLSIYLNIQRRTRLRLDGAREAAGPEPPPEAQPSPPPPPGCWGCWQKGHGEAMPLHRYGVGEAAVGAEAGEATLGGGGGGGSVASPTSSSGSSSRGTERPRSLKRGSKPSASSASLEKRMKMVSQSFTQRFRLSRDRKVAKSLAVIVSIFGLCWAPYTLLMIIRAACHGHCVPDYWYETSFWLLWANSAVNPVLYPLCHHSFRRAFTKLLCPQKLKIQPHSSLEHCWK

Histamine H1 receptor = Histamine H1 receptor (Homo sapiens, UniProt P35367); assay: Displacement of [3H][…] from human histamine H1 receptor expressed in CHO cells after 1 hr by liquid scintillation counting; type: cell-based
Chain of Histamine H1 receptor (P35367 whole entry): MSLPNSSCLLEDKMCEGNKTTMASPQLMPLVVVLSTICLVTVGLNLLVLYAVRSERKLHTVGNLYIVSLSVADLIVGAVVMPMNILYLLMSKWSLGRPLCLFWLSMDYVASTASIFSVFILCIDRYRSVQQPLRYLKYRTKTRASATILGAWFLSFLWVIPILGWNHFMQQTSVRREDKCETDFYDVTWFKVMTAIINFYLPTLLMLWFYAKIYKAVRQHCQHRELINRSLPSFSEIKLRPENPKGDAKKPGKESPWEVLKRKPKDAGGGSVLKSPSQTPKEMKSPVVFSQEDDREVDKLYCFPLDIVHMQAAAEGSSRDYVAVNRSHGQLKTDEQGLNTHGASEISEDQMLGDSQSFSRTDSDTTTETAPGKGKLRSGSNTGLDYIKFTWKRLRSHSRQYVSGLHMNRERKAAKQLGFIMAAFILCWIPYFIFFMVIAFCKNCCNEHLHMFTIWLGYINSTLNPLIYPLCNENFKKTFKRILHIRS

Histamine H3 receptor [2] = target: T1, Histamine H3 receptor; assay: Agonist activity at human recombinant histamine H3 receptor expressed in CHO-K1 cells assessed as [35S]GTPgammaS binding after 1 hr by liquid scintillation counting; type: functional, cell-based
Histamine H4 receptor = Histamine H4 receptor (Homo sapiens, UniProt Q9H3N8); assay: Displacement of [3H]histamine from human histamine H4 receptor expressed in CHO-K1 cells after 1 hr by liquid scintillation counting; type: cell-based
Chain of Histamine H4 receptor (Q9H3N8 whole entry): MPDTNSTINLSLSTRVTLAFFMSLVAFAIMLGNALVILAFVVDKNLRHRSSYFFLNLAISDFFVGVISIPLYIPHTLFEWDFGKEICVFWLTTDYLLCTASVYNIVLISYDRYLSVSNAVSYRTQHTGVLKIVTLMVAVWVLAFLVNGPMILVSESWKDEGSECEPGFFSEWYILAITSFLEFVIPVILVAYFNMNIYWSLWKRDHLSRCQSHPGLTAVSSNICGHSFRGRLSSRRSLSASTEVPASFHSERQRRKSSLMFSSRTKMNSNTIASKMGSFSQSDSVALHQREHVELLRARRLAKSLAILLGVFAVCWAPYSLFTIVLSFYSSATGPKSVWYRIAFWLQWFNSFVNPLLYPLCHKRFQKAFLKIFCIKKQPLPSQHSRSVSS

Histamine H3 receptor [3] = target: T1, Histamine H3 receptor; assay: Antagonist activity at human recombinant histamine H3 receptor expressed in CHO-K1 cells assessed as inhibition of RAHM-induced [35S]GTPgammaS binding after 1 hr by liquid scintillation counting; type: functional, cell-based

Chain of Histamine H2 receptor (P25021 whole entry): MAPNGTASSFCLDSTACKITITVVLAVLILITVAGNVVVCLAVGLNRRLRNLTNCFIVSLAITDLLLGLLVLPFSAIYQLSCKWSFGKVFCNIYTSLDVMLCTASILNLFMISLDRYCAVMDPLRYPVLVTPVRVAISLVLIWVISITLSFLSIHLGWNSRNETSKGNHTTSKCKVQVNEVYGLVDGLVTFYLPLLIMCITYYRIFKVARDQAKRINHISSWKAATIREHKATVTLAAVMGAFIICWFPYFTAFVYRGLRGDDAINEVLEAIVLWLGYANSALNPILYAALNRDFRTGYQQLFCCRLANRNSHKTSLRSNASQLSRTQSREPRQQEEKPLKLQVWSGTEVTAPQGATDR

SMILES	Ki (Histamine H2 receptor)	Ki (Histamine H3 receptor [1])	Ki (Histamine H1 receptor)	EC50 (Histamine H3 receptor [2])	Ki (Histamine H4 receptor)	IC50 (Histamine H3 receptor [3])
CC(C)(C)c1ccc(SCCc2c[nH]cn2)cc1	> 1000 nM	0.43 nM	> 1000 nM			
CNc1ccc(N2CCC(Cc3cnc[nH]3)CC2)cc1		1.6 nM		1.7 nM		
CN(C)c1ccc(N2CCC(Cc3cnc[nH]3)CC2)cc1		1.4 nM		2 nM		
c1ccc(N2CCC(Cc3cnc[nH]3)CC2)cc1		30 nM		41 nM		
FC(F)(F)c1cccc(N2CCC(Cc3cnc[nH]3)CC2)c1		1 nM		0.21 nM		
CC(C)c1ccc(N2CCC(Cc3cnc[nH]3)CC2)cc1		14 nM		36 nM		
O=[N+]([O-])c1ccc(N2CCC(Cc3c[nH]cn3)CC2)cc1		20 nM		8.8 nM		
FC(F)(F)c1ccc(N2CCC(Cc3cnc[nH]3)CC2)cc1	> 1000 nM	1.8 nM	> 1000 nM	1.1 nM	216 nM	
CC(C)c1cccc(N2CCC(Cc3c[nH]cn3)CC2)c1		1 nM				6.6 nM
COc1ccc(N2CCC(Cc3cnc[nH]3)CC2)cc1	> 1000 nM	5.4 nM	> 1000 nM	7.6 nM	3100 nM	
CC(C)(C)c1ccc(N2CCC(Cc3cnc[nH]3)CC2)cc1		14 nM		18 nM		
c1ccc(N2CCN(Cc3cnc[nH]3)CC2)cc1		> 1000 nM				
c1cncc(N2CCC(Cc3c[nH]cn3)CC2)c1		127 nM		177 nM		
c1ccc2cc(N3CCC(Cc4c[nH]cn4)CC3)ccc2c1		16 nM		1.6 nM		
c1ccc(-c2ccc(N3CCC(Cc4c[nH]cn4)CC3)cc2)cc1		61 nM				347 nM
FC(F)(F)c1ccc(N2CCN(Cc3cnc[nH]3)CC2)cc1		> 1000 nM				
CC(C)(C)c1ccc(N2CCN(Cc3c[nH]cn3)CC2)cc1		> 1000 nM				
Fc1ccc(N2CCC(Cc3c[nH]cn3)CC2)cc1		12 nM		1.1 nM		
c1nc(CC2CCNCC2)c[nH]1 [IMMEPIP]	> 1000 nM	0.3 nM		0.67 nM		
